Reference: patent US9862684B2, “Modulation of K2P channels” (The Regents of the University of California, priority 2013, dated 2018)

Legend:
[1] = biological target: T1, TREK-1 (Mus musculus, UniProt P97438); assay: Modulation of TREK-1 by select compounds (agonist activity), Table 3; type: cell-based, Murine; settings: 50 μM
T1 construct: expressed in transfected cells
T1 sequence (P97438 1-411 isoform P97438-2): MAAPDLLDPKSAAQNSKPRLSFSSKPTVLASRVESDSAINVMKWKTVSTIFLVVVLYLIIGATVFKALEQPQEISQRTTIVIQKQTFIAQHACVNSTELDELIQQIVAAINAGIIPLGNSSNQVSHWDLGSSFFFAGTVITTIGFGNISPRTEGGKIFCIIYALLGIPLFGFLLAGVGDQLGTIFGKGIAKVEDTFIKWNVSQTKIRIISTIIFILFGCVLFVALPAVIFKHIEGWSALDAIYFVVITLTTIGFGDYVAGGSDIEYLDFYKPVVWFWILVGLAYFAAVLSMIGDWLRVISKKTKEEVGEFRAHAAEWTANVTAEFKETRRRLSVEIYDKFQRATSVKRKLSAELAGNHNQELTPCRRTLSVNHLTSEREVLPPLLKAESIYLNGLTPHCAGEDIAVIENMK
Experimental: Two-electrode voltage clamp recordings were performed from defolliculated stage V-VI Xenopus oocytes 24-48 hours after injection with 0.015-6.0 ng cRNA, using microelectrodes (0.3-3.0 MΩ) filled with 3M KCl. […] Recording solutions (mM): 2K (96 NaCl, 2 KCl, 1.8 CaCl2, 2 MgCl2), 90K (90 KCl, 8 NaCl, 1.8 CaCl2, 2 MgCl2), were buffered 5 mM HEPES pH 7.4. For K2P recordings, currents we elicited by a 1 second long ramp from −150 to +50 mV from a holding potential of −80 mV (2K), or −100 to +50 mV from a holding potential of 0 mV (90K). For KCNQ2 recordings, currents were elicited by a step protocol from −120 to 60 mV, in 20 mV increments, from a holding potential of −80 mV. […] Currents were elicited by a 1 second long ramp from −150 to +50 mV from a holding potential of −80 mV.

[2] = biological target: T2, purified TRAAK channels (Homo sapiens, UniProt Q9NYG8); assay: UV crosslinking and labeling of purified TRAAK channel; type: binding; settings: TRAAK 3 μM, 254 nm UV 30 seconds, streptavidin-HRP detection
T2 sequence (Q9NYG8 1-393): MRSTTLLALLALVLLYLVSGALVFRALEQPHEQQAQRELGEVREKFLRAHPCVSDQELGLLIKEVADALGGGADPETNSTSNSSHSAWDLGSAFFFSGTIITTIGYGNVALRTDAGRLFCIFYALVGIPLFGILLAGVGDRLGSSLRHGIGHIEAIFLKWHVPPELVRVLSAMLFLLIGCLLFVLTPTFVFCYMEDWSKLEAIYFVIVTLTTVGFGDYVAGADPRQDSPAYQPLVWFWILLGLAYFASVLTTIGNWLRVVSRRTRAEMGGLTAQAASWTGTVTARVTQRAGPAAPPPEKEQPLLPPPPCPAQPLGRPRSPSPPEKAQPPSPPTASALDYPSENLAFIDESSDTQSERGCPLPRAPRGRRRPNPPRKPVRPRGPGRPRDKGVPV
Experimental: FIG. 15 Crosslinking and labeling of TRAAK channel with ML67-151; crosslinking of ML67-151 to purified TRAAK channels (3 μM) following exposure to 254 nm UV light for 30 seconds; left is SDS-PAGE of purified TRAAK, top middle is streptavidin-HRP detection following addition of clickable biotin; bottom middle is Ponceau S staining
Crosslinking of ML67-151 to purified TRAAK channels (3 μM) following exposure to 254 nm UV light for 30 seconds is shown in the top middle blot of FIG. 15, including streptavidin-HRP detection following addition of clickable biotin.

C#Cc1ccc(S(=O)(=O)NC(=O)CCN2c3ccc(N=[N+]=[N-])cc3C3(CCCCC3)c3cc(N=[N+]=[N-])ccc32)cc1 [ML67-151, 1-(2-azido-10-{2-[(4-ethynylbenzene-sulfonyl)carbamoyl]ethyl}-10H-spiro[acridine-9,1′-cyclohexane]-7-yl)triaza-1,2-dien-2-ium]
% activity at 50 μM [1]: About 50% activity of ML67-33 at 50 μM
crosslinking and labeling of TRAAK channel (in words) [2]: capable of crosslinking and labeling TRAAK channel
